Here are results for five compounds from US20250000882A1, “LYSOPHOSPHATIDYLCHOLINE COMBINATIONS AS A THERAPY TO TREAT CARDIAC ARREST” (THE FEINSTEIN INSTITUTES FOR MEDICAL RESEARCH, priority 2021, published 2025).

For one assay, the system named is neuronal cells. The settings on record: rats supplemented with LPC; cited from earlier work.
The subject of assay [1] is rats after 10 minutes of asphyxia-induced cardiac arrest. Nature of the assay: Rat survival and neurologic function (mNDS) after 10-minute asphyxia-induced cardiac arrest with LPC supplementation. It counts as in vivo. The settings on record: for rat survival for 72 hr after resuscitation (Kaplan-Meier) / modified neurologic deficit score (mNDS) at 24 hours / modified neurologic deficit score (mNDS) at 72 hours: 10-minute cardiac arrest; for rat survival for 72 hr after resuscitation (Kaplan-Meier): 6 mg/kg LPC via femoral vein 1 minute after ROSC, vs vehicle; for modified neurologic deficit score (mNDS) at 24 hours / modified neurologic deficit score (mNDS) at 72 hours: surviving rats, 6 mg/kg, 100% = perfect score. As for the experimental part: (§1) The study was conducted using adult male Sprague-Dawley rats (400-500 g, Charles River Laboratories, Wilmington, MA) utilizing procedures for asphyxia-induced cardiac arrest and cardiopulmonary resuscitation (CPR). Briefly, asphyxial cardiac arrest was induced by stopping ventilation after injecting vecuronium bromide (2 mg/kg). After 10 or 14 minutes of asphyxia-cardiac arrest, ventilation was restarted with chest compressions. Typically, rats achieve ROSC within 1 minute after the initiation of CPR. Rats were extubated 2 hours after ROSC. Blood samples were collected from the femoral artery at baseline and multiple time points during cardiac arrest or postresuscitation. Plasma was separated using centrifugation at 1,000×g for 10 minute and stored at −80° C. Brain tissue was harvested from animals that survived for 72 hours after perfusion with saline and fixed with 4% paraformaldehyde.
To test the beneficial effect of LPC supplementation, LPC (18:1) was first administered because it was the only commercially available species out of the four LPC species decreased after 10 minute of cardiac arrest. The study was then extended to test the effect of attached fatty acid by including custom-made LPC (22:6) and LPC (18:0). Different groups of control rats for each set of experiment for accurate assessment were used. Rats were randomized into each group (n=12). Baseline characteristics of rats were not different between the groups in each set of experiment.
The LPC species mixed with 0.5% bovine serum albumin (BSA) in phosphate-buffered saline (0.5 mL) was injected over 1 minute via the femoral vein cannula beginning 1 minute after ROSC, with vehicle group injected with only BSA. 6 mg/kg of LPC was injected, because this dosage preserved LPC level in post-resuscitation plasma for 2 hours after 10-minute cardiac arrest. The purities of the injected LPC species were over 98%.
Survival was followed for 72 hours with brain function evaluated in a blinded manner using the modified neurologic deficit score (mNDS) after resuscitation for surviving rats. The mNDS is expressed as percentage, with 100% representing perfect score.
Kaplan-Meier curves compared survival between the LPC and vehicle groups using the Wilcoxon test. For phospholipids levels, Mann-Whitney U test was used to compare two independent groups. Repeated measures analysis of variance was used to compare the vital signs between two groups. Spearman correlation coefficients were calculated to evaluate the correlation between blood pH and plasma LPC levels. For changes in plasma LPC levels postreperfusion, we performed Jonckheere-Terpstra test. Statistical analyses were performed using the JMP software (Version 14.2, SAS Institute, Cary, NC). p values of less than 0.05 were considered statistically significant. Data were expressed as the mean±se of the mean.

The test system of assay [2] is neurons in hippocampal CA1 region and cortex. Nature of the assay: Brain histology (Nissl and Fluoro-Jade B staining) at 72 hours post-resuscitation. The conditions noted are these: for number of neurons in the hippocampus (Nissl staining), % of control values: 10-minute cardiac arrest; for degenerating cells in the cortex (FJB staining), fold increase compared with control value: vehicle seven-fold. It is filed as in vivo, rat. The procedure:
as §1
Plasma phospholipids were analyzed using plasma samples obtained from humans and rats following our established high-performance liquid chromatography-mass spectrometry (HPLC-MS) method. For brain histology, serial coronal sections (14 μm) were prepared from the fixed brain tissue using a cryostat (CM1900, Leica, Germany). The sections were used for Nissl staining to determine the number of surviving neurons in hippocampal CA1 region or Fluoro-Jade B (FJB) staining to count the number of degenerative neurons in the cortex.

In assay [3] the test system is rats after 12 minutes of asphyxia-induced cardiac arrest. Nature of the assay: 12 minutes of asphyxia-induced cardiac arrest rat model (survival, plasma troponin I, SSEP). It is filed as in vivo. The conditions noted are these: 12 minutes of cardiac arrest. As for the experimental part: as §1
The therapeutic effects of LPC species as well as combination of all three species was then tested using 12 minutes of cardiac arrest, which induces more severe injury than 10 minutes of cardiac arrest. […] Also compared was the plasma troponin I level to assess the effects of individual LPC species LPC (18:0), LPC (18:1), LPC (22:6) and the LPC Combination for heart function (see FIG. 8 and FIG. 9 respectively). […] Since these rats are severely injured and mNDS are not appropriate to measure their brain function, we used SSEP to compare the brain function between LPC (18:1) and LPC combination groups.

For a further assay, the system named is IL-6. Nature of the assay: Plasma IL-6 level, 10 minutes of asphyxia-induced cardiac arrest rat model. It is filed as in vivo. The conditions noted are these: after 10 minutes of cardiac arrest. As for the experimental part: (§2) Using the 10 minutes of asphyxia-induced cardiac arrest rat model, supplementing LPC (18:1) decreased inflammatory IL-6′ levels and increased the anti-inflammatory IL-10 levels in rat plasma after 10 minutes of cardiac arrest (FIG. 15A and FIG. 15B).

For another assay, the system named is IL-10. Nature of the assay: Plasma IL-10 level, 10 minutes of asphyxia-induced cardiac arrest rat model. It counts as in vivo. The settings on record: after 10 minutes of cardiac arrest. The procedure:
as §2

In a further assay the test system is heart. Nature of the assay: Heart ejection fraction at 2 h after resuscitation. It is filed as in vivo, rat. The settings on record: 10 min cardiac arrest per FIG. 13 legend. As for the experimental part:
(§3) The beneficial effects of LPC (18:2), LPC(20:4), and LPC (16:0) for their beneficial effects using the same cardiac arrest model were also tested. […] Furthermore, none of the LPC (18:2) treated rats were able to walk whereas 40 to 50% of LPC (22:6) and LPC (18:1) treated rats were able to walk.

The test system of another assay is lung. Nature of the assay: Lung wet-to-dry weight ratio after cardiac arrest. It is filed as in vivo, rat. As for the experimental part: as §3
The conditions of assay [4]: diet supplemented with LPC; cited from earlier work.

With `CCCCCCCCCCCCCC(=O)OC[C@@H](O)COP(=O)([O-])OCC[N+](C)(C)C` [LPC (14:0)], the “protection of neuronal cells after brain ischemia” value with neuronal cells is “provided protecting to neuronal cells”.

Turning to “lysophosphatidylcholine (18:0) [LPC (18:0)]”, in assay [1], the “rat survival for 72 hr after resuscitation (Kaplan-Meier)” value (“rat survival for 72 hr” below) is recorded as “no improved outcomes”. Moreover, the “effect on neuronal cellular morphology” value in assay [2] is “minimal effect”. Further, in [3], the “plasma troponin I level” value is “only the LPC Combination showed a decrease”.

As for “lysophosphatidylcholine (18:1) [LPC (18:1)]”, the “inflammatory IL-6 levels in rat plasma” value in the assay on IL-6 was “decreased”. Also, in [1], the “rat survival for 72 hr” value was “significantly improved rat survival”, the “modified neurologic deficit score (mNDS) at 24 hours” value is 66% and the “modified neurologic deficit score (mNDS) at 72 hours” value turned out to be 76%. Moreover, in [2], the “number of neurons in the hippocampus (Nissl staining), % of control values” turned out to be 86% and the “degenerating cells in the cortex (FJB staining), fold increase compared with control value” is on record as “decreased to a three-fold increase”. Further, in assay [3], the “plasma troponin I level” value is reported as “only the LPC Combination showed a decrease”, the “rat survival (Kaplan-Meier)” value was “most significantly improved rat survival” and the “return of the SSEP signal (brain function)” value is recorded as “did not happen”. Besides, the “anti-inflammatory IL-10 levels in rat plasma” value with IL-10 was “increased”.

As for “lysophosphatidylcholine (18:2) [LPC (18:2)]”, in the assay with heart, the heart ejection fraction result is recorded as “improved”. In [1] (10 min cardiac arrest per FIG. 12 legend), the “neuroprotective effect (mNDS at 48 hours and 72 hours)” value is “not as good as LPC (18:1) or LPC (22:6)”. Moreover, the “rat survival (Kaplan-Meier)” value in assay [1] ("same cardiac arrest model", 10 min cardiac arrest per FIG. 11 legend) is given as “significantly improve survival”. Moreover, the “treated rats able to walk” value in assay [1] (after cardiac arrest) is “none”. Besides, the lung wet-to-dry ratio result with lung is given as “Reduced”.

For “lysophosphatidylcholine (22:6) [LPC (22:6)]”, the cognitive functions result in assay [4] is listed as “improved their cognitive functions”. Moreover, in assay [1], the “rat survival for 72 hr” value was “improved rat survival”, the “modified neurologic deficit score (mNDS) at 24 hours” value is given as 51% and the “modified neurologic deficit score (mNDS) at 72 hours” value was determined as 86%. Further, in assay [2], the “number of neurons in the hippocampus (Nissl staining), % of control values” came to 88% and the “degenerating cells in the cortex (FJB staining), fold increase compared with control value” is “decreased to a three-fold increase”. Also, the “plasma troponin I level” value in assay [3] is recorded as “only the LPC Combination showed a decrease”.
